Measurements reported in PubChem BioAssay AID2060908 (Molecular Pharmacology Branch, DTP, NCI, 2025).

System: 186277-243-T-J2-PDC complex spheroids, viability
Experiment: Anticancer human tumor 186277-243-T-J2-PDC patient-derived colon adenocarcinoma cell line growth inhibition [RAS]
Details: for IC50: curve of first compound; for viability, T/C: stronger effect = lower value
Summary of the method: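 Multi-cell-type spheroids: tumor cells plus HUVEC endothelial cells and mesenchymal stem cells. RAS-pathway inhibitors were combined with targeted agents, each dosed in half-log steps down from clinical Cmax, or from 10 microM when Cmax was unknown.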

[1] = second compound 0.0316 µM, first compound 0.0316 µM
[2] = second compound 0.0316 µM, first compound 0.1 µM
[3] = second compound 0.0316 µM, first compound 0.316 µM
[4] = second compound 0.0316 µM, first compound 1 µM
[5] = second compound 0.0316 µM, first compound 3.16 µM
[6] = second compound 0.0316 µM, first compound 10 µM
[7] = second compound 0.1 µM, first compound 0.0316 µM
[8] = second compound 0.1 µM, first compound 0.1 µM
[9] = second compound 0.1 µM, first compound 0.316 µM
[10] = second compound 0.1 µM, first compound 1 µM
[11] = second compound 0.1 µM, first compound 3.16 µM
[12] = second compound 0.1 µM, first compound 10 µM
[13] = second compound 0.316 µM, first compound 0.0316 µM
[14] = second compound 0.316 µM, first compound 0.1 µM
[15] = second compound 0.316 µM, first compound 0.316 µM
[16] = second compound 0.316 µM, first compound 1 µM
[17] = second compound 0.316 µM, first compound 3.16 µM
[18] = second compound 0.316 µM, first compound 10 µM
[19] = second compound 1 µM, first compound 0.0316 µM
[20] = second compound 1 µM, first compound 0.1 µM
[21] = second compound 1 µM, first compound 0.316 µM
[22] = second compound 1 µM, first compound 1 µM
[23] = second compound 1 µM, first compound 3.16 µM
[24] = second compound 1 µM, first compound 10 µM
[25] = second compound 3.16 µM, first compound 0.0316 µM
[26] = second compound 3.16 µM, first compound 0.1 µM
[27] = second compound 3.16 µM, first compound 0.316 µM
[28] = second compound 3.16 µM, first compound 1 µM
[29] = second compound 3.16 µM, first compound 3.16 µM
[30] = second compound 3.16 µM, first compound 10 µM
[31] = second compound 10 µM, first compound 0.0316 µM
[32] = second compound 10 µM, first compound 0.1 µM
[33] = second compound 10 µM, first compound 0.316 µM
[34] = second compound 10 µM, first compound 1 µM
[35] = second compound 10 µM, first compound 3.16 µM
[36] = second compound 10 µM, first compound 10 µM
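Further: spheroids exposed to compounds for 7 days before viability read.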

SMILES: Cc1nc(N2CCC3(CC2)COC(C)C3N)c(CO)nc1Sc1ccnc(N)c1Cl (stereo unspecified) + C#Cc1c(F)ccc2cc(O)cc(-c3ncc4c(N5CC6CCC(C5)N6)nc(OCC56CCCN5CC(F)C6)nc4c3F)c12
- IC50 (second compound 0.0316 µM): 114 nM
- IC50 (second compound 0.1 µM): < 31.6 nM
- IC50 (second compound 0.316 µM): < 31.6 nM
- IC50 (second compound 1 µM): < 31.6 nM
- IC50 (second compound 3.16 µM): < 31.6 nM
- IC50 (second compound 10 µM): < 31.6 nM
- viability, T/C [1]: 60.5%
- viability, T/C [2]: 53.8%
- viability, T/C [3]: 23.1%
- viability, T/C [4]: 9.38%
- viability, T/C [5]: 7.2%
- viability, T/C [6]: 5.04%
- viability, T/C [7]: 43.9%
- viability, T/C [8]: 24.9%
- viability, T/C [9]: 9.87%
- viability, T/C [10]: 9.03%
- viability, T/C [11]: 6.97%
- viability, T/C [12]: 6.34%
- viability, T/C [13]: 14.7%
- viability, T/C [14]: 13.1%
- viability, T/C [15]: 9.91%
- viability, T/C [16]: 8%
- viability, T/C [17]: 6.18%
- viability, T/C [18]: 5.92%
- viability, T/C [19]: 12.2%
- viability, T/C [20]: 10.3%
- viability, T/C [21]: 8.18%
- viability, T/C [22]: 5.06%
- viability, T/C [23]: 6.45%
- viability, T/C [24]: 4.66%
- viability, T/C [25]: 8.78%
- viability, T/C [26]: 9.76%
- viability, T/C [27]: 7.42%
- viability, T/C [28]: 6.36%
- viability, T/C [29]: 5.23%
- viability, T/C [30]: 4.36%
- viability, T/C [31]: 7.27%
- viability, T/C [32]: 4.82%
- viability, T/C [33]: 6.12%
- viability, T/C [34]: 4.54%
- viability, T/C [35]: 4.2%
- viability, T/C [36]: 1.83%

SMILES: NC1c2ccccc2OC12CCN(c1cnc3c(N4CCCc5ncccc54)n[nH]c3n1)CC2 (stereo unspecified) + C#Cc1c(F)ccc2cc(O)cc(-c3ncc4c(N5CC6CCC(C5)N6)nc(OCC56CCCN5CC(F)C6)nc4c3F)c12
- IC50 (second compound 0.0316 µM): < 31.6 nM
- IC50 (second compound 0.1 µM): < 31.6 nM
- IC50 (second compound 0.316 µM): < 31.6 nM
- IC50 (second compound 1 µM): < 31.6 nM
- IC50 (second compound 3.16 µM): < 31.6 nM
- IC50 (second compound 10 µM): < 31.6 nM
- viability, T/C [1]: 39.1%
- viability, T/C [2]: 14.9%
- viability, T/C [3]: 8.55%
- viability, T/C [4]: 7.47%
- viability, T/C [5]: 5.16%
- viability, T/C [6]: 3.58%
- viability, T/C [7]: 14.2%
- viability, T/C [8]: 9.2%
- viability, T/C [9]: 7.59%
- viability, T/C [10]: 7.67%
- viability, T/C [11]: 5.13%
- viability, T/C [12]: 3.21%
- viability, T/C [13]: 10.8%
- viability, T/C [14]: 8.96%
- viability, T/C [15]: 7.32%
- viability, T/C [16]: 7.04%
- viability, T/C [17]: 5.5%
- viability, T/C [18]: 3.89%
- viability, T/C [19]: 9.12%
- viability, T/C [20]: 7.57%
- viability, T/C [21]: 7.39%
- viability, T/C [22]: 5.61%
- viability, T/C [23]: 4.48%
- viability, T/C [24]: 3.29%
- viability, T/C [25]: 8.98%
- viability, T/C [26]: 6.65%
- viability, T/C [27]: 5.07%
- viability, T/C [28]: 4.41%
- viability, T/C [29]: 5.32%
- viability, T/C [30]: 2.82%
- viability, T/C [31]: 6.21%
- viability, T/C [32]: 5.08%
- viability, T/C [33]: 3.47%
- viability, T/C [34]: 2.88%
- viability, T/C [35]: 1.6%
- viability, T/C [36]: 0.47%

SMILES: Nc1ccn(C2OC(CO)C(O)C2(F)F)c(=O)n1 (stereo unspecified) + C#Cc1c(F)ccc2cc(O)cc(-c3ncc4c(N5CC6CCC(C5)N6)nc(OCC56CCCN5CC(F)C6)nc4c3F)c12
- IC50 (second compound 0.0316 µM): < 3.16 nM
- IC50 (second compound 0.1 µM): < 3.16 nM
- IC50 (second compound 0.316 µM): < 3.16 nM
- IC50 (second compound 1 µM): < 3.16 nM
- IC50 (second compound 3.16 µM): < 3.16 nM
- IC50 (second compound 10 µM): < 3.16 nM
- viability, T/C (second compound 0.0316 µM, first compound 0.00316 µM): 47%
- viability, T/C (second compound 0.0316 µM, first compound 0.01 µM): 8.41%
- viability, T/C [1]: 7.36%
- viability, T/C [2]: 8.79%
- viability, T/C [3]: 6.46%
- viability, T/C [4]: 8.3%
- viability, T/C (second compound 0.1 µM, first compound 0.00316 µM): 28.4%
- viability, T/C (second compound 0.1 µM, first compound 0.01 µM): 8.66%
- viability, T/C [7]: 8.73%
- viability, T/C [8]: 6.07%
- viability, T/C [9]: 7.33%
- viability, T/C [10]: 7.04%
- viability, T/C (second compound 0.316 µM, first compound 0.00316 µM): 14.2%
- viability, T/C (second compound 0.316 µM, first compound 0.01 µM): 8.55%
- viability, T/C [13]: 7.4%
- viability, T/C [14]: 7.69%
- viability, T/C [15]: 5.4%
- viability, T/C [16]: 7.34%
- viability, T/C (second compound 1 µM, first compound 0.00316 µM): 9.92%
- viability, T/C (second compound 1 µM, first compound 0.01 µM): 7.97%
- viability, T/C [19]: 7.96%
- viability, T/C [20]: 6.96%
- viability, T/C [21]: 7.3%
- viability, T/C [22]: 5.65%
- viability, T/C (second compound 3.16 µM, first compound 0.00316 µM): 7.24%
- viability, T/C (second compound 3.16 µM, first compound 0.01 µM): 6.5%
- viability, T/C [25]: 6.06%
- viability, T/C [26]: 5.7%
- viability, T/C [27]: 4.35%
- viability, T/C [28]: 5.91%
- viability, T/C (second compound 10 µM, first compound 0.00316 µM): 8.28%
- viability, T/C (second compound 10 µM, first compound 0.01 µM): 7.76%
- viability, T/C [31]: 5.58%
- viability, T/C [32]: 5.8%
- viability, T/C [33]: 5.91%
- viability, T/C [34]: 6.36%
